Test results taken from patent US9127291B2, “Methods and products for biasing cellular development” (University of Central Florida Research Foundation, Inc., priority 2004, dated 2015).

Tested on: multipotent stem cells
Assay: Nkx2-5-transfected multipotent stem cells cocultured with rat cardiomyocytes
Assay type: cell-based, human
Conditions: coculture with rat cardiomyocytes
Text: Red=human specific Troponin I, Green=Human cells. Following transfection, multipotent stem cells were cocultured with rat cardiomyocytes that provide environmental signals to allow the transfected cells to develop properly.

Nkx2-5: developmental control gene Nkx2-5 (SEQ ID NO: 12) transfected into multipotent stem cells (DNA TGCTGGCATGTCCGCTGTCT; listed as DNA, chemistry not given here)
biasing of differentiation (human specific Troponin I staining): biases the differentiation toward the development of cardiac cells
